Assay results reported in patent publication US10736898B2, “Positive allosteric modulators of the muscarinic acetylcholine receptor M4” (Vanderbilt University, priority 2017, dated 2020).

Biological target: T1, Human M4 (Homo sapiens, UniProt P08173)
T1 construct: expressed in transfected cells
T1 sequence (P08173 1-479): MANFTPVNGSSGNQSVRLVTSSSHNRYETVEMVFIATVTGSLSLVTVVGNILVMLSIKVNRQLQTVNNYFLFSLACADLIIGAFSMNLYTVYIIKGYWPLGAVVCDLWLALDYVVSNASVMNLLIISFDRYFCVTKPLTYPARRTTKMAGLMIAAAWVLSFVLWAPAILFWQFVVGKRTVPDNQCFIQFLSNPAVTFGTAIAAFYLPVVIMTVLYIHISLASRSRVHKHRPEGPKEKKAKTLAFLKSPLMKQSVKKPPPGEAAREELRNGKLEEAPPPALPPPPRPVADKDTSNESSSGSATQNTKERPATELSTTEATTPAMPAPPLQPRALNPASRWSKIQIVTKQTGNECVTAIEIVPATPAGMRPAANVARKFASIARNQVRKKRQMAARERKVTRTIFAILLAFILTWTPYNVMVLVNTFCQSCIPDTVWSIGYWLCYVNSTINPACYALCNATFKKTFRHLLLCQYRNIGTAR
Test: mAChR M4 cell-based functional assay (calcium flux, potentiation of EC20 acetylcholine response)
Details: for Emax / Emax at 30 µM: % ACh maximum at 30 μM, human M4; for EC50: CHO-K1 cells with human M4 and Gqi5, increase in EC20 acetylcholine response
Experimental: Human M4 cDNA, along with the chimeric G protein Gqi5, were transfected into Chinese hamster ovary (CHO-K1) cells purchased from the American Type Culture Collection using commercially available Lipofectamine 2000 transfection reagent (Dalby, B. et al., Methods (2004) 33(2), 95-103). hM4-Gqi5 cells were grown in Ham's F-12 medium containing 10% heat-inactivated fetal bovine serum (FBS), 20 mM HEPES, 50 μg/mL G418 sulfate (CAS #108321-42-2), and 500 μg/mL Hygromycin B. rM4-Gqi5 cells were grown in DMEM containing 10% heat-inactivated FBS, 20 mM HEPES, 400 μg/mL G418 sulfate, and 500 μg/mL Hygromycin B.
For high throughput measurement of agonist-evoked increases in intracellular calcium, CHO-K1 cells stably expressing muscarinic receptors were plated in growth medium lacking G418 sulfate and hygromycin at 15,000 cells/20 μL/well in Greiner 384-well black-walled, tissue culture (TC)-treated, clear-bottom plates (VWR). Cells were incubated overnight at 37° C. and 5% CO2. The next day, cells were washed using an ELX 405 (BioTek) with assay buffer; the final volume was then aspirated to 20 μL. […] Dye was removed by washing with the ELX 405 and the final volume was aspirated to 20 μL. Compound master plates were formatted in an 11 point concentration-response curve (CRC) format (1:3 dilutions) in 100% DMSO with a starting concentration of 10 mM using a BRAVO liquid handler (Agilent). Test compound CRCs were then transferred to daughter plates (240 nL) using the Echo acoustic plate reformatter (Labcyte, Sunnyvale, Calif.) and then diluted into assay buffer (40 μL) to a 2× stock using a Thermo Fisher Combi (Thermo Fisher Scientific, Waltham, Mass.).
Calcium flux was measured using the Functional Drug Screening System (FDSS) 6000 or 7000 (Hamamatsu Corporation, Tokyo, Japan) as an increase in the fluorescent static ratio. Compounds were applied to cells (20 μL, 2×) using the automated system of the FDSS at 2-4 seconds into the protocol and the data were collected at 1 Hz. At 144 seconds, 10 μL of an EC20 concentration of the muscarinic receptor agonist acetylcholine was added (5×), followed by the addition of 12 μL of an EC80 concentration of acetylcholine at the 230 second time point (5×). Agonist activity was analyzed as a concentration-dependent increase in calcium mobilization upon compound addition. Positive allosteric modulator activity was analyzed as a concentration-dependent increase in the EC20 acetylcholine response. […] Antagonist activity was analyzed as a concentration-dependent decrease in the EC80 acetylcholine response. Concentration-response curves were generated using a four-parameter logistical equation in XLFit curve fitting software (IDBS, Bridgewater, N.J.) for Excel (Microsoft, Redmond, Wash.) or Prism (GraphPad Software, Inc., San Diego, Calif.).

Compound | Emax | EC50 | Emax at 30 µM
5-chloro-2,4-dimethyl-8-pyrrolidin-1-yl-pyrido[4,5]thieno[1,2-b]pyrimidine [Compound 45] | 60.9% | 693 nM | 
5-chloro-N-[(3-fluoro-4-methoxy-phenyl)methyl]-2,4-dimethyl-pyrido[4,5]thieno[1,2-b]pyrimidin-8-amine [Compound 42] | 60.5% | 723 nM | 
Cc1nc(C)c2c(n1)sc1c(N3CCCC3)ncnc12 [Compound 2, 7,9-dimethyl-4-(pyrrolidin-1-yl)thieno[2,3-d:4,5-d′]dipyrimidine] |  | 288 nM | 51.7%
COc1ccc(CNc2ncnc3c2sc2nc(C)nc(C)c23)cc1F [Compound 3, N-(3-fluoro-4-methoxybenzyl)-7,9-dimethylthieno[2,3-d:4,5-d′]dipyrimidin-4-amine] |  | 1160 nM | 64.8%
Cc1nc(C)c2c(n1)sc1c(NC3CCCC3)ncnc12 [Compound 4, N-cyclopentyl-7,9-dimethylthieno[2,3-d:4,5-d′]dipyrimidin-4-amine] |  | 557 nM | 55.5%
[2H]C([2H])(Nc1ncnc2c1sc1nc(C)nc(C)c12)c1ccc(C(C)(C)O)cc1 [Compound 5, 2-(4-(((7,9-dimethylthieno[2,3-d:4,5-d′]dipyrimidin-4-yl)amino)methyl-d2)phenyl)propan-2-ol] |  | 1370 nM | 79.3%
Cc1nc(C)c2c(n1)sc1c(NCc3ccc(C4(O)CCC4)cc3)ncnc12 [Compound 6, 1-(4-(((7,9-dimethylthieno[2,3-d:4,5-d′]dipyrimidin-4-yl)amino)methyl)phenyl)cyclobutan-1-ol] |  | 2020 nM | 81.3%
Cc1nc(C)c2c(n1)sc1c(NCc3ccc(C(C)(O)C4CC4)cc3)ncnc12 (stereo not drawn) [Compound 7, 1-cyclopropyl-1-(4-(((7,9-dimethylthieno[2,3-d:4,5-d′]dipyrimidin-4-yl)amino)methyl)phenyl)ethan-1-ol] |  | 2090 nM | 71.2%
Cc1nc(C)c2c(n1)sc1c(N3CC4CC4C3)ncnc12 (stereo not drawn) [Compound 8, 4-(3-azabicyclo[3.1.0]hexan-3-yl)-7,9-dimethylthieno[2,3-d:4,5-d′]dipyrimidine] |  | 156 nM | 75.5%
Cc1nc(C)c2c(n1)sc1c(N3CCOCC3)ncnc12 [Compound 9, 4-(7,9-dimethylthieno[2,3-d:4,5-d′]dipyrimidin-4-yl)morpholine] |  | 5570 nM | 39.1%
Cc1nc(C)c2c(n1)sc1c(N3CC4(COC4)C3)ncnc12 [Compound 10, 6-(7,9-dimethylthieno[2,3-d:4,5-d′]dipyrimidin-4-yl)-2-oxa-6-azaspiro[3.3]heptane] |  | 1580 nM | 76%
Cc1nc(C)c2c(n1)sc1c(N3CCCC3)nccc12 [Compound 11, 2,4-Dimethyl-8-(pyrrolidin-1-yl)pyrido[4′,3′:4,5]thieno[2,3-d]pyrimidine] |  | 73 nM | 77%
Cc1nc(C)c2c(n1)sc1c(N3CCCCC3)nccc12 [Compound 12, 2,4-dimethyl-8-(1-piperidyl)pyrido[4′,3′:4,5]thieno[2,3-d]pyrimidine] |  | 73 nM | 57.9%
COc1ccc(CNc2nccc3c2sc2nc(C)nc(C)c23)cc1F [Compound 13, N-(3-fluoro-4-methoxybenzyl)-2,4-dimethylpyrido[4′,3′:4,5]thieno[2,3-d]pyrimidin-8-amine] |  | 169 nM | 84.4%
Cc1nc(C)c2c(n1)sc1c(NCc3ccc(C(C)(C)O)cc3)nccc12 [Compound 14, 2-(4-(((2,4-dimethylpyrido[4′,3′:4,5]thieno[2,3-d]pyrimidin-8-yl)amino)methyl)phenyl)propan-2-ol] |  |  | 80.5%
Cc1nc(C)c2c(n1)sc1c(NC3CCCC3)nccc12 [Compound 15, N-cyclopentyl-2,4-dimethylpyrido[4′,3′:4,5]thieno[2,3-d]pyrimidin-8-amine] |  | 134 nM | 73.3%
Cc1nc(C)c2c(n1)sc1c(N3CCC3)ncnc12 [Compound 16, 4-(azetidin-1-yl)-7,9-dimethylthieno[2,3-d:4,5-d′]dipyrimidine] |  | 1440 nM | 59.9%
Cc1nc(C)c2c(n1)sc1c(N3CC4(C3)CC(F)(F)C4)ncnc12 [Compound 17, 4-(6,6-difluoro-2-azaspiro[3.3]heptan-2-yl)-7,9-dimethylthieno[2,3-d:4,5-d′]dipyrimidine] |  | 185 nM | 42.9%
Cc1nc(C)c2c(n1)sc1c(N3CCC(F)(F)C3)ncnc12 [Compound 18, 4-(3,3-difluoropyrrolidin-1-yl)-7,9-dimethylthieno[2,3-d:4,5-d′]dipyrimidine] |  | 635 nM | 76.9%
Cc1nc(C)c2c(n1)sc1c(N3CC[C@H](F)C3)ncnc12 [Compound 19, (S)-4-(3-fluoropyrrolidin-1-yl)-7,9-dimethylthieno[2,3-d:4,5-d′]dipyrimidine] |  | 1060 nM | 62.4%
Cc1nc(C)c2c(n1)sc1c(N3CC[C@@H](F)C3)ncnc12 [Compound 20, (R)-4-(3-fluoropyrrolidin-1-yl)-7,9-dimethylthieno[2,3-d:4,5-d′]dipyrimidine] |  | 791 nM | 71.5%
Cc1nc(C)c2c(n1)sc1c(N3CCC(F)(F)CC3)ncnc12 [Compound 21, 4-(4,4-difluoropiperidin-1-yl)-7,9-dimethylthieno[2,3-d:4,5-d′]dipyrimidine] |  | 1410 nM | 52.6%
Cc1nc(C)c2c(n1)sc1c(NCc3ccc(C(C)(C)O)cc3F)nccc12 [Compound 22, 2-[4-[[(2,4-dimethylpyrido[4,5]thieno[1,2-b]pyrimidin-8-yl)amino]methyl]-3-fluoro-phenyl]propan-2-ol] |  | 840 nM | 88.7%
CCN(CC)C(=O)c1ccc(CNc2nccc3c2sc2nc(C)nc(C)c23)cc1 [Compound 23, 4-[[(2,4-dimethylpyrido[4,5]thieno[1,2-b]pyrimidin-8-yl)amino]methyl]-N,N-diethyl-benzamide] |  | 4240 nM | 78.8%
CCN(CC)c1nccc2c1sc1nc(C)nc(C)c12 [Compound 24, N,N-diethyl-2,4-dimethyl-pyrido[4,5]thieno[1,2-b]pyrimidin-8-amine] |  | > 10000 nM | 37.7%
Cc1nc(C)c2c(n1)sc1c(N3CCC(F)(F)C3)nccc12 [Compound 25, 8-(3,3-difluoropyrrolidin-1-yl)-2,4-dimethyl-pyrido[4,5]thieno[1,2-b]pyrimidine] |  | 42 nM | 94.6%
Cc1nc(C)c2c(n1)sc1c(NC3CCC3)nccc12 [Compound 26, N-cyclobutyl-2,4-dimethyl-pyrido[4,5]thieno[1,2-b]pyrimidin-8-amine] |  | 300 nM | 94.8%
Cc1nc(C2CC2)nc2sc3c(NCc4ccc(C(C)(C)O)c(F)c4)nccc3c12 [Compound 27, 2-[4-[[(2-cyclopropyl-4-methyl-pyrido[4,5]thieno[1,2-d]pyrimidin-8-yl)amino]methyl]-2-fluoro-phenyl]propan-2-ol] |  | 2270 nM | 86.4%
Cc1nc(C2CC2)nc2sc3c(NCc4ccc(C(C)(C)O)cc4)nccc3c12 [Compound 28, 2-[4-[[(2-cyclopropyl-4-methyl-pyrido[4,5]thieno[1,2-d]pyrimidin-8-yl)amino]methyl]phenyl]propan-2-ol] |  | 1390 nM | 97%
